According to US4760087A, “Phenol derivatives and pharmaceutical compositions containing these compounds” (Gruenenthal GmbH, priority 1985, dated 1988):

Legend:
Sprague-Dawley-rats [1] = experiment: Inhibition of kaolin-induced paw oedema, test compound injected in each paw simultaneously with kaolin; assay type: in vivo; details: 1 mg injected in each paw simultaneously with kaolin
Experimental: (§1) By subplantar injection of 0.1 ml of a kaolin suspension (100 mg/ml) into Sprague-Dawley-rats, an oedema is induced and the paw volume is measured plethysometrically every hour. Three hours after the induction of the oedema a suspension of the respective test compound in a 1% carboxymethylcellulose sodium solution (5 ml/kg body weight of the animal) is administered intraperitoneally. In table 2 the percentage of alteration in the paw volume due to the inhibition of the oedema by the test compound in relation to the volume determined immediately before the test compound was applied (i.e. the initial value) is shown. (FIGS. of more than 100% indicate a decrease in the volume of the oedema below the initial value):
In other experiments the test compound was administered simultaneously with the application of the kaolin suspension by injection of 1 mg of the test compound dissolved in 0.1 ml of a 1% carboxymethylcellulose sodium solution in each paw. The following maximum values of inhibition of the oedema or the formation of the oedema, respectively, were determined: […]

cyclooxygenase = target: T1, cyclooxygenase (Ovis aries, UniProt P05979); experiment: Inhibition of cyclooxygenase in sheep seminal vesicle microsomes; assay type: biochemical; details: for Quotient IC50 II/IC50 I: cyclooxygenase IC50 (II) / 5-lipoxygenase IC50 (I); for IC50: sheep seminal vesicle microsomes, pH 7.5, 10 minutes, room temperature, read-out: IC50 for inhibition of cyclooxygenase (II)
T1 construct: suspension of sheep seminal vesicle microsomes; from tissue; host or cells: sheep seminal vesicle microsomes
T1 sequence (P05979 25-600): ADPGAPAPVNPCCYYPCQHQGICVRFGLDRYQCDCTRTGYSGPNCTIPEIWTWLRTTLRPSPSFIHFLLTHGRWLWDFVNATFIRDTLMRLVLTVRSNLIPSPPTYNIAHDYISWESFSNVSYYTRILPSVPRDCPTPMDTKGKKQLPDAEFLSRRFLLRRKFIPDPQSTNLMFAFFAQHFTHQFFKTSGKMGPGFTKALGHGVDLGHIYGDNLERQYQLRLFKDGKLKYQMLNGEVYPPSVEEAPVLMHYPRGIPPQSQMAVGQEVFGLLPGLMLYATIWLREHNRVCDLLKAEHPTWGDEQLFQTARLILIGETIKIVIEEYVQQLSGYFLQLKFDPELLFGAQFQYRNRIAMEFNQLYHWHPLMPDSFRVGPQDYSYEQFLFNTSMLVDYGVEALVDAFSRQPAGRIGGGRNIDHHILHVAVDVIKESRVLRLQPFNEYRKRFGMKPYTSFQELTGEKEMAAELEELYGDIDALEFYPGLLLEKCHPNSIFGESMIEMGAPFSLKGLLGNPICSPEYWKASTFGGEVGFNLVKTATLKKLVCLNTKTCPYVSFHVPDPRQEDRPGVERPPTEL
Experimental: The effect of the test compounds on the activity of cyclooxygenase was tested usinfg a suspension of sheep seminal vesicle microsomes in 50 mM potassium phosphate buffer of pH 7.5 which was incubated for 10 minutes at room temperature with the test compound and [^14 C]-arachidonic acid. After acidification with glacial acetic acid the mixture was extracted with ethyl acetate and the residue obtained after evaporation of the extract separated by thin layer chromatography on plates precoated with silica gel using the solvent system ether/hexane/glacial acetic acid (50:50:1).

5-lipoxygenase = target: T2, 5-lipoxygenase (Rattus norvegicus, UniProt P12527); experiment: Inhibition of 5-lipoxygenase in rat basophilic leukemia cells (5-HETE and LTB4 formation from [14C]-arachidonic acid); assay type: cell-based; details: indomethacin 10 μM, A 23187, room temperature, 5 minutes, read-out: IC50 for inhibition of 5-lipoxygenase (I)
T2 construct: endogenous in cells; host or cells: rat basophilic leukemia cells
T2 sequence (P12527 1-673): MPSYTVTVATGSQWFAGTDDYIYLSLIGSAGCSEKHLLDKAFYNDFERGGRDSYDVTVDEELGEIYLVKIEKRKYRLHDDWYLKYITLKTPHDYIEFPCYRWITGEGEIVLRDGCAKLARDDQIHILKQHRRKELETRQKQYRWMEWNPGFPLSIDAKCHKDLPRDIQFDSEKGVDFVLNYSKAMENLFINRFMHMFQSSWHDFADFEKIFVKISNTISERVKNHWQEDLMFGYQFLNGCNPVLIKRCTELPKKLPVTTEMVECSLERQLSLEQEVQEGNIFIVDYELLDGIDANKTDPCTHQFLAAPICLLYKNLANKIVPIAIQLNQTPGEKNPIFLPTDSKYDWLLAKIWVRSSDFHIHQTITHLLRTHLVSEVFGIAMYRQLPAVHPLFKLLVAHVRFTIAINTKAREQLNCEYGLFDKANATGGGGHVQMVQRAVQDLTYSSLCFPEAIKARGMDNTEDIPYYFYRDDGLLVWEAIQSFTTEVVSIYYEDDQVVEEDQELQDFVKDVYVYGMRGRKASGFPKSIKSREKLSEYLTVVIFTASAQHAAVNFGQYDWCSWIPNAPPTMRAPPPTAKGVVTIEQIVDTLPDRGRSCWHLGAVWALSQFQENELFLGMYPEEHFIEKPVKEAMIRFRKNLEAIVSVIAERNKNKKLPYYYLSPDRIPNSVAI
Experimental: To determine the inhibition of 5-lipoxygenase rat basophilic leukemia cells were cultured in vitro, and after a cell concentration of about 10^6 cells/ml had been obtained, the cells were harvested by centrifugation at 400 g. The precipitate was suspended in 50 mM potassium phosphate buffer of pH 7.4 at 1.5×10^7 cells/ml.
To 1 ml each of this suspension there was added indomethacin (10 μM) and calcium chloride (2 mM) and then the mixture was incubated in presence or absence of a test compound with [^14 C]-arachidonic acid and the calcium ionophore A 23 187 [Chaney et al., J. Am. Chem. Soc. 96: 1932-3 (1974)] at room temperature for 5 minutes. The mixture was acidified to pH 5 and extracted with ethyl acetate to isolate the metabolites of arachidonic acid formed by the enzymatic action of 5-lipoxygenase. These were separated by thin layer chromatography using a solvent mixture known to be suitable for leukotriene analysis [c.f. Jakschik et al., Biochem. Biophys. Res. Commun. 102, 624 (1984)]. The distribution of the radioactivity among the different metabolites was measured with a Thin Layer Scanner (TLC linear analyzer). By bringing into relationship the percentages of the amount of 5-hydroxyeicosatetraenoic acid (5-HETE) and leukotriene B4 (LTB4) formed under the action of 5-lipoxygenase to the amount or the concentration, respectively, of the total radioactivity used and of the test compound of formula I the "IC50 -value I" (i.e. the concentration of the test compound which causes an 50%-inhibition of the 5-lipoxygenase) is determined.

Sprague-Dawley-rats [2] = experiment: Inhibition of kaolin-induced paw oedema, test compound given intraperitoneally three hours after induction; assay type: in vivo; details: for % Inhibition (Maximum) of oedema: 3 h after kaolin, more than 100% = decrease below initial value
Experimental: as §1, with “value): […]” for “value):”

| Structure (SMILES) | % Inhibition (Maximum) of oedema (Sprague-Dawley-rats [1]) [%] | Time after administration of the test compound (of maximum inhibition) (Sprague-Dawley-rats [1]) [h] | Quotient IC50 II/IC50 I (cyclooxygenase) | IC50 (cyclooxygenase) [nM] | IC50 (5-lipoxygenase) [nM] | Time after administration of the test compound (of maximum inhibition) (Sprague-Dawley-rats [2]; 46.4 mg/kg intraperitoneally) [h] | % Inhibition (Maximum) of oedema (Sprague-Dawley-rats [2]; 46.4 mg/kg intraperitoneally) [%] | Time after administration of the test compound (of maximum inhibition) (Sprague-Dawley-rats [2]; 100.0 mg/kg intraperitoneally) [h] | % Inhibition (Maximum) of oedema (Sprague-Dawley-rats [2]; 100.0 mg/kg intraperitoneally) [%] |
| --- | --- | --- | --- | --- | --- | --- | --- | --- | --- |
| COc1cc(C#CCCCCCCC#CCO)ccc1O [Example 5, 11-Hydroxy-1-(4'-hydroxy-3'-methoxyphenyl)-undeca-1,9-diyne] | 61 | 3 |  |  |  |  |  |  |  |
| OCC#CCCCCCCC#Cc1ccc(O)c(O)c1 [Example 7, 1-(3',4'-Dihydroxyphenyl)-11-hydroxy-undeca-1,9-diyne] | 36 | 2 | 253.3 | 38000 | 150 | 1 | 65 | 1 | 164 |
| OC/C=C\CCCCCC/C=C\c1ccc(O)c(O)c1 [Example 9, 1-(3',4'-Dihydroxyphenyl)-11-hydroxy-undeca-1Z,9Z-diene] |  |  | 90.3 | 28000 | 310 |  |  |  |  |
| CC(C)(O)C#CCCCCCCC#Cc1ccc(O)c(O)c1 [Example 13, 1-(3',4'-Dihydroxyphenyl)-11-hydroxy-11-methyl-dodeca-1,9-diyne] |  |  | 88.6 | 31000 | 350 |  |  |  |  |
| CCCCCC(O)C#CCCCCCCC#Cc1ccc(O)c(O)c1 (stereo not shown) [Example 14, 1-(3',4'-Dihydroxyphenyl)-11-hydroxy-hexadeca-1,9-diyne] | 46 | 2 | 119.1 | 25000 | 210 | 1 | 68 | 2 | 127 |
| Oc1ccc(C#CCCCCCCC#CC(O)c2ccccc2)cc1O (stereo not shown) [Example 15, 1-(3',4'-Dihydroxyphenyl)-11-hydroxy-11-phenyl-undeca-1,9-diyne] | 64 | 5 | > 320.0 | > 100000 | 320 |  |  | 2 | 73 |
| Oc1ccc(C#CCCCCCCC#CC(O)C2CCCCC2)cc1O (stereo not shown) [Example 16, 11-Cyclohexyl-1-(3',4'-dihydroxyphenyl)-11-hydroxy-undeca-1,9-diyne] | 45 | 7 | 132.1 | 37000 | 280 |  |  | 1 | 54 |
| COc1cc(C#CCCCCCCC#CCO)cc(OC)c1O [Example 18, 1-(3',5'-Dimethoxy-4'-hydroxyphenyl)-11-hydroxy-undeca-1,9-diyne] |  |  | 380.0 | 38000 | 100 |  |  |  |  |
| Oc1ccc(C#CCCCCCC/C=C/C(O)C2CCCCC2)cc1O (stereo not shown) [Example 22c, 11-Cyclohexyl-1-(3',4'-dihydroxphenyl)-11-hydroxy-undec-9E-en-1-yne] |  |  | 44.8 | 130000 | 2900 |  |  |  |  |
| Oc1ccc(/C=C\CCCCCC/C=C/C(O)C2CCCCC2)cc1O (stereo not shown) [Example 22d, 11-Cyclohexyl-1-(3',4'-dihydroxyphenyl)-11-hydroxy-undeca-1Z,9E-diene] |  |  | 64.3 | 180000 | 2800 |  |  |  |  |
